Laboratory results published in US8637535B2, “Polymorphic and other crystalline forms of cis-FTC” (Gilead Sciences, Inc., priority 2001, dated 2014).

Key:
HIV [1] = details: racemic mixture; cited from earlier work
HIV [2] = details: cited from earlier work
[3] = heated to 160° C., cooled to 25° C., reheated at 10° C./min
Experimental: Thermal events for Form I (−)-cis-FTC upon melting and subsequent cooling to room temperature were observed by DSC. A 5.5500 mg sample of Form I (−)-cis-FTC was heated to 160° C., that is just above the melting temperature for Form I, and then cooled back to 25° C.

[4] = solubility values greater than 100 mg/mL are considered highly soluble
Experimental: Equilibrium Solubility: Equilibrium solubility values were obtained using an excess of solid in a stoppered flask shaken in a temperature-controlled water bath at 25 C for 52 hours. Residual solid material was identified postequilibrium by hot-stage microscopy and PXRD. The supernatant was filtered across 0.45-μm membrane filters prior to dilution for HPLC analysis.

[5] = hand trituration 5 minutes or Fitzpatrick mill; DSC and PXRD
Experimental: Milling: (−)-cis-FTC was milled in a Fitzpatrick mill at high speed (4000 RPM), hammers forward with a 000-band screen. The drug was passed through the filter once and collected in a plastic bag.
Two batches of milled Form I (−)-cis-FTC were prepared: one by hand trituration in a mortar and pestle for 5 minutes, another by milling in a Fitzpatrick mill.

[6] = below 130° C.

In the case of `Nc1ccn(C2CSC(CO)O2)c(=O)n1` (racemic) [BCH-189, 2-hydroxymethyl-5-(cytosin-1-yl)-1,3-oxathiolane], the “activity against HIV relative to AZT” value (HIV [1]) is given as “approximately the same activity against HIV as AZT”.
For `Nc1nc(=O)n([C@@H]2CS[C@H](CO)O2)cc1F` [(−)-(cis)-FTC, 4-amino-5-fluoro-1-(2-(hydroxymethyl)-1,3-oxathiolan-5-yl)-2(1H)-pyrimidinone (2R-cis)], the HIV activity (HIV [2]) is given as “potent”.
In the case of `Nc1nc(=O)n([C@@H]2CS[C@H](CO)O2)cc1F` [Form I, β-L-2-hydroxymethyl-5-(5-fluorocytosin-1-yl)-1,3-oxathiolane], the “change in potency by HPLC” value [3] is reported as “no change in potency”, the solubility category [4] is reported as “highly soluble” and the “effect of milling on crystal form” value [5] is reported as “does not affect the crystal form”. The “thermodynamic stability among phases” value [6] was “most stable phase”.
